Read-outs that look alike come from different tables or passages of the source.
Columns and labels:
[1] = target: T1, α4β1 (Homo sapiens, UniProt P05556+P13612); settings: cited from earlier work
[2] = tested on: heterotopic heart allograft; settings: hyperlipidemic rabbit; cited from earlier work
[3] = tested on: oxazolone-induced contact hypersensitivity; settings: 6 mg/kg, sc; compared with α4 antibody PS/2; cited from earlier work
[4] = target: T1, α4β1; assay: Ramos Cell Adhesion Assay (α4β1 Mediated Adhesion/VCAM-1); format: cell-based; set-up: Ramos Cell Adhesion Assay (α4β1 Mediated Adhesion/VCAM-1); endogenous in cells; host or cells: Ramos cells
Experimental: Ramos Cell Adhesion Assay (α4β1 Mediated Adhesion/VCAM-1)
Immulon 96 well plates (Dynex) were coated with 100 μL recombinant hVCAM-1 at 4.0 μg/mL in 0.05 M NaCO3 buffer pH 9.0 overnight at 4° C. (R&D Systems). Plates were washed 3 times in PBS with 1% BSA and blocked for 1 h @ room temperature in this buffer. PBS was removed and compounds to be tested (50 μL) were added at 2× concentration. Ramos cells, (50 μL at 2×10^6/mL) labeled with 5 μM Calcein AM (Molecular Probes) for 1 h at 37° C., were added to each well and allowed to adhere for 1 h at room temperature. Plates were washed 3× in PBS+1% BSA and cells were lysed for 15 minutes in 100 μL of 1 M Tris pH 8.0 with 1% SDS. The plate was read at 485 nm excitation and 530 nm emission.

[5] = target: T2, human α4β7 integrin (Homo sapiens, UniProt P13612+P26010); assay: α4β7-K562 Cell Adhesion Assay (α4β7 Mediated Adhesion/MAdCAM-1); format: cell-based
T2 construct: expressed in transfected cells; host or cells: K562 cells, stably transfected
T2 sequence (P13612 34-1032): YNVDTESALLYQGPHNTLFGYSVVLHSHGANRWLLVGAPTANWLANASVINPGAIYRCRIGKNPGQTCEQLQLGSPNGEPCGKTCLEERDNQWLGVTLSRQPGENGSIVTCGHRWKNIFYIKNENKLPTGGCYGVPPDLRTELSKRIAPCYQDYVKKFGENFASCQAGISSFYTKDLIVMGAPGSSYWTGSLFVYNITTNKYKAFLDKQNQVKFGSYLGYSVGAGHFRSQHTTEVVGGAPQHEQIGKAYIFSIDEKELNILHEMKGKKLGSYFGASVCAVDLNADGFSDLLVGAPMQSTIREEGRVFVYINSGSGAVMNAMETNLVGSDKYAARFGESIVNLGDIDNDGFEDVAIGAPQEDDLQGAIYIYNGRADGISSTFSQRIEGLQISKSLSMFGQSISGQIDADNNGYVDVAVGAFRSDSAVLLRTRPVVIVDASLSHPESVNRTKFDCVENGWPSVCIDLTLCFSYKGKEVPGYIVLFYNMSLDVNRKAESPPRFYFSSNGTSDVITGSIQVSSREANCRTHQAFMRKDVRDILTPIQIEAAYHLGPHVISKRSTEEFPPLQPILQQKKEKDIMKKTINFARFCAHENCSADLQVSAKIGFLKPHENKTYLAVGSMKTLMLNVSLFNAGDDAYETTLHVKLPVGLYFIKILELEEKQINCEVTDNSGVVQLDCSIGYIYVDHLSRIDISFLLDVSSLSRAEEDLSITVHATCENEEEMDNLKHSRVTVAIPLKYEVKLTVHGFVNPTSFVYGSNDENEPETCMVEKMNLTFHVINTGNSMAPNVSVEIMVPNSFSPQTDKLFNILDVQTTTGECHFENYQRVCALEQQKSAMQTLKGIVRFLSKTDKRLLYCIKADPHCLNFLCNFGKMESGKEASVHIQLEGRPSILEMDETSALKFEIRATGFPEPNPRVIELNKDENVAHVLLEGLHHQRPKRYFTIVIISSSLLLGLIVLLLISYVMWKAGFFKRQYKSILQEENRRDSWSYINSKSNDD
T2 sequence (P26010 20-798): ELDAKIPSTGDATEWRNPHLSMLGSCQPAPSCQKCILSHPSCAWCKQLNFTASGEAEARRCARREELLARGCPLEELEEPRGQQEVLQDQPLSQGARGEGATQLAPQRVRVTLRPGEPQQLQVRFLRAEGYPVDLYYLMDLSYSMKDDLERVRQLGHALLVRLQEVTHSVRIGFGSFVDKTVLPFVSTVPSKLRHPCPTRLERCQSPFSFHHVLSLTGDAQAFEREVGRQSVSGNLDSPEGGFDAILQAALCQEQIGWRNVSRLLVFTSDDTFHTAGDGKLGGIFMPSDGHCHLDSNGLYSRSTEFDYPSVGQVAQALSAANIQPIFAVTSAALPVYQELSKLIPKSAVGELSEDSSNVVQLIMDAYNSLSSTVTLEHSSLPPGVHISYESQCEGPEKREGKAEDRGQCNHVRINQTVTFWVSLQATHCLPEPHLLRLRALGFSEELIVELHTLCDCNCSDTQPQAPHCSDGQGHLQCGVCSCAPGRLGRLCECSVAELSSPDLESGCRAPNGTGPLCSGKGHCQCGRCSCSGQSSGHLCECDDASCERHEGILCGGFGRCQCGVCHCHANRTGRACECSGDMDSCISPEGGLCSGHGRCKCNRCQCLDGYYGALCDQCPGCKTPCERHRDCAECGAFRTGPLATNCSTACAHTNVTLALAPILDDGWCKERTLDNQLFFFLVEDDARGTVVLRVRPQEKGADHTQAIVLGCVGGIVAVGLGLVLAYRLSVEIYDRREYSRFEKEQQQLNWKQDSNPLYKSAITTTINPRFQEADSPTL
Experimental: α4β7-K562 Cell Adhesion Assay (α4β7 Mediated Adhesion/MAdCAM-1)
M2 anti-FLAG antibody coated 96-well plates (Sigma) were coated for 1 hour at 4° C. with 2-8 μl/well recombinant FLAG-hMAdCAM-1 contained in 100 μL of Dulbecco's PBS, pH 7.4, with 1% BSA and 1 mM Mn^2+ (PBS-BSA-Mn). Plates were washed once with PBS-BSA-Mn. Buffer was removed and compounds to be tested (50 μL) were added at 2 times concentration. Stably transfected K562 cells expressing human α4β7 integrin, (50 μL at 2×10^6/mL) that had been labeled with 100 μg/mL carboxymethyl fluorescein diacetate succinimidyl ester (CFDA-SE; Molecular Probes) for 15 min at 37° C. were added to each well and allowed to adhere for 1 h at room temperature. Plates were washed 4 times in PBS-BSA-Mn and then cells were lysed for 2 minutes by addition of 100 μL of PBS without Ca, Mg supplemented with 0.1 M NaOH. The plate was read on a 96-well fluorescent plate reader at 485 nm excitation and 530 nm emission.

[6] = Ramos cells adhering to recombinant hVCAM-1, read-out: α4β1 IC50
[7] = K562 cells expressing human α4β7 adhering to FLAG-hMAdCAM-1, 1 mM Mn2+, read-out: α4β7, Madcam IC50

T1 sequence (P05556 21-798, one chain of several): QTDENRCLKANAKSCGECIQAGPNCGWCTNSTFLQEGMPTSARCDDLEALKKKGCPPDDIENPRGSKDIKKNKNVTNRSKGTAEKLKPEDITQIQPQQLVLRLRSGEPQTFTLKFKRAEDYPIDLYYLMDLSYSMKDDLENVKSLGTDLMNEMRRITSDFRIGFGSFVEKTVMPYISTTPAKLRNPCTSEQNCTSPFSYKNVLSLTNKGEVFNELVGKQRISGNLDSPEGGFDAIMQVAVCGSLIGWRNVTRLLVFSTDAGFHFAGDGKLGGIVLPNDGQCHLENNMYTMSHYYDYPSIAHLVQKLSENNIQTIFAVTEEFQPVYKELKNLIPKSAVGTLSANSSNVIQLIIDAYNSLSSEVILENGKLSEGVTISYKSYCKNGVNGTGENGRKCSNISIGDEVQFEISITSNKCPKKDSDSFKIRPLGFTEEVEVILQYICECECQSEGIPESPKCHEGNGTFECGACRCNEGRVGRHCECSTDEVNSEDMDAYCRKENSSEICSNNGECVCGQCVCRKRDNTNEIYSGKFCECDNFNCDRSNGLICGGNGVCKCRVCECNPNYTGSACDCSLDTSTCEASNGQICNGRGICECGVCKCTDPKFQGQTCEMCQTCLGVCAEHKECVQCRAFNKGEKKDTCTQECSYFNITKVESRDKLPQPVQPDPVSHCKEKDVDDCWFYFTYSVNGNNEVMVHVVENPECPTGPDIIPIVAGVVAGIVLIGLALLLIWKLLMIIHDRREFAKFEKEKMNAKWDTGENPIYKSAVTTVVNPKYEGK

Row | Compound | IC50 [4, 6] [µM] | IC50 [5, 7] [µM] | IC50 [4] [µM] | IC50 [5] [µM] | further results
1 | Phenylacetyl-Leu-Asp-Phe-D-Pro-NH2 |  |  |  |  | IC50 [1]: 2 µM; efficacy in heart allograft model [2]: effective; efficacy in contact hypersensitivity [3]: efficacy similar to the α4 antibody PS/2
2 | COc1cccc(OC)c1-c1ccc(CC(NC(=O)C2CCc3nnc(Cc4c[nH]c5ccccc45)n32)C(=O)O)cc1 (centres unmarked) [Cpd 16, 3-(2′,6′-Dimethoxy-biphenyl-4-yl)-2-{[3-(1H-indol-3-ylmethyl)-6,7-dihydro-5H-pyrrolo[2,1-c][1,2,4]triazole-5-carbonyl]-amino}-propionic acid] | > 5 | 0.04 |  |  | 
3 | O=C(Nc1ccc(C[C@H](NC(=O)[C@@H]2CCc3nnc(Cc4ccccc4)n32)C(=O)O)cc1)c1cccc2c1-c1ccccc1C2=O [Cpd 8, 2-(S)-[(3-Benzyl-6,7-dihydro-5H-pyrrolo[2,1-c][1,2,4]triazole-5-(S)-carbonyl)-amino]-3-{4-[(9-oxo-9H-fluorene-4-carbonyl)-amino]-phenyl}-propionic acid] | 1.56 | 0.35 |  |  | 
4 | O=C(Nc1ccc(C[C@H](NC(=O)[C@@H]2CCc3n[nH]c(=O)n32)C(=O)O)cc1)c1c(Cl)cccc1Cl [Cpd 18, 3-[4-(2,6-Dichloro-benzoylamino)-phenyl]-2-(S)-[(3-oxo-2,5,6,7-tetrahydro-3H-pyrrolo[2,1-c][1,2,4]triazole-5-(S)-carbonyl)-amino]-propionic acid] | 0.85 | 0.09 |  |  | 
5 | O=C(Nc1ccc(C[C@H](NC(=O)[C@@H]2CCc3nnc(Cc4ccsc4)n32)C(=O)O)cc1)c1c(Cl)cccc1Cl [Cpd 12, 3-[4-(2,6-Dichloro-benzoylamino)-phenyl]-2-(S)-[(3-thiophen-3-ylmethyl-6,7-dihydro-5H-pyrrolo[2,1-c][1,2,4]triazole-5-(S)-carbonyl)-amino]-propionic acid] | 0.38 | 0.12 |  |  | 
6 | CN(C)C(=O)Oc1ccc(C[C@H](NC(=O)C2CCCc3nnc(Cc4ccccc4)n32)C(=O)O)cc1 (stereo partly drawn) [Cpd 2, 2-(S)-[(3-Benzyl-5,6,7,8-tetrahydro-[1,2,4]triazolo[4,3-a]pyridine-5-carbonyl)-amino]-3-(4-dimethylcarbamoyloxy-phenyl)-propionic acid] |  |  | 5.09 | 1.66 | 
7 | CN(C)C(=O)Oc1ccc(C[C@H](NC(=O)[C@@H]2CCc3nnc(Cc4ccccc4)n32)C(=O)O)cc1 [Cpd 3, 2-(S)-[(3-Benzyl-6,7-dihydro-5H -pyrrolo[2,1-c][1,2,4]triazole-5-(S)-carbonyl)-amino]-3-(4-dimethylcarbamoyloxy-phenyl)-propionic acid] |  |  | 4.15 | > 5 | 
8 | CN(C)C(=O)Oc1ccc(C[C@H](NC(=O)C2CCCc3nnc(-c4ccccc4)n32)C(=O)O)cc1 (stereo partly drawn) [Cpd 1, 3-(4-Dimethylcarbamoyloxy-phenyl)-2-(S)-[(3-phenyl-5,6,7,8-tetrahydro-[1,2,4]triazolo[4,3-a]pyridine-5-carbonyl)-amino]-propionic acid] |  |  | 3.3 | 1.22 | 

— patent US7618983B2, “Bicyclic triazole α4 integrin inhibitors” (Janssen Pharmaceutica, N.V., priority 2004, dated 2009)
